Assay results as given in patent publication US8901125B2, “Substituted bicyclic alkoxy pyrazole analogs as allosteric modulators of mGluR5 receptors” (Vanderbilt University, priority 2012, dated 2014).

Legend:
[1] = tested on: amphetamine-induced hyperlocomotion; experiment: Reversal of amphetamine-induced hyperlocomotion in rats; type: in vivo, male Sprague-Dawley rats; conditions: 10 mg/kg p.o.; amphetamine 1 mg/kg s.c.; intervals 13-24; rat
Method: The study was carried out using male Sprague-Dawley rats weighing 225 g-275 g, between 2-3 months old (Harlan, Inc., Indianapolis, Ind.). They were kept in the animal care facility certified by the American Association for the Accreditation of Laboratory Animal Care (AALAC) under a 12-hour light/dark cycle (lights on: 6 a.m.; lights off: 6 p.m.) and had free access to food and water. The experimental protocols performed during the light cycle were approved by the Institutional Animals Care and Use Committee of Vanderbilt University and conformed to the guidelines established by the National Research Council Guide for the Care and Use of Laboratory Animals
Locomotor activity was assessed as mean distance traveled (cm) in Smart Open Field locomotor activity test chambers (Hamilton-Kinder, San Diego, Calif.) with 16×16 photobeams with chambers measuring 43.2 cm (Length)×43.2 cm (Width)×30.5 cm (Height) (Med Associates, St. Albans, Vt.). The animals were habituated for 30 min and then dosed with vehicle or test compound. The rats were then placed into cages. At 60 min, all rats were injected subcutaneously with 1 mg/kg amphetamine or vehicle and then monitored for an additional 60 min. Animals are monitored for a total of 120 minutes.
Data are expressed as the mean (±SEM) distance traveled recorded in 5 min intervals over the test period. The data was analyzed using repeated measures analysis of variance (ANOVA) followed by post-hoc testing using Dunnett's test, when appropriate. A difference was considered significant when p≦0.05. The data for the dose-response studies were analyzed by a between-group analysis of variance. If there was a main effect of dose, then each dose group was compared with the vehicle amphetamine group. The calculations were performed using JMP IN 8 (SAS Institute, Cary, N.C.) statistical software and graphed using SigmaPlot9 (Saugua, Mass.).
Amphetamine sulfate was obtained from Sigma (Cat#A5880-1G; St. Louis, Mo.) and 10 mg was dissolved in 10 ml of water. […]

[2] = biological target: human mGluR5a receptor (Homo sapiens, UniProt P41594); experiment: Cell-based functional assay (Ca2+ mobilization, FDSS), potentiation of glutamate EC20 response; conditions: H10H cell line; for Emax: maximum % effect in the concentration-response curve as percent of maximal glutamate response, glutamate EC20; for EC50: potentiation in presence of glutamate EC20, concentration in mol/L
From the text: Human mGluR5a cDNA in pCMV6-XL6 mammalian expression plasmid was purchased from OriGene Technologies, Inc. (catalogue number SC326357) and subcloned into pcDNA3.1(−). Human embryonic kidney (HEK)293A cells were then transfected with human mGluR5a pcDNA3.1(−) using LipofectAmine-2000 (Invitrogen) and monoclones were selected and tested for functional response using a Ca^2+ mobilization assay. Monoclones were named for the species (“H” for human) plus the location on the plate (e.g. “10H”).
HEK cells transfected with the human mGluR5a receptor (H10H or H12H cell line) were plated at 15,000 cells/well in clear-bottomed poly-D-lysinecoated assay plates (BD Falcon) in glutamate-glutamine-free growth medium and incubated overnight at 37° C. and 5% CO2. Cell-lines used were either the H10H or H12H cell-lines expressing the human mGluR5 receptor. The following day, the growth medium was removed and the cells were washed with assay buffer containing 1× Hank's balanced salt solution (Invitrogen, Carlsbad, Calif.), 20 mM HEPES, 2.5 mM probenecid, pH 7.4 and left with 20 μL of this reagent. Following this step, the cells were loaded with calcium indicator dye, fluo-4 AM, to a final concentration of 2 μM and incubated for 40-45 min at 37° C. The dye solution was removed and replaced with assay buffer. Cell plates were held for 10-15 min at room temperature and were then loaded into the Functional Drug Screening System 6000 (FDSS 6000, Hamamatsu, Japan).
After establishment of a fluorescence baseline for about 3 seconds, the compounds of the present invention were added to the cells, and the response in cells was measured. 2.3 minutes later an EC20 concentration of the mGluR5 receptor agonist glutamate was added to the cells, and the response of the cells was measured for about 1.7 minutes. All test compounds were dissolved and diluted to a concentration of 10 mM in 100% DMSO and then serially diluted into assay buffer for a 2× stock solution in 0.6% DMSO; stock compounds were then added to the assay for a final DMSO concentration of 0.3% after the first addition to the assay well. Calcium fluorescence measures were recorded as fold over basal fluorescence; raw data was then normalized to the maximal response to glutamate. Potentiation of the agonist response of the mGluR5 receptor in the present invention was observed as an increase in response to submaximal concentrations of glutamate in the presence of compound compared to the response to glutamate in the absence of compound.
The concentration-response curves of compounds of the present invention, obtained in the presence of EC20 of mGluR5 receptor agonist glutamate to determine positive allosteric modulation, were generated using Microsoft Excel with IDBS XLFit add-ins. The raw data file containing all time points was used as the data source in the analysis template. This was saved by the FDSS as a tab-delimited text file. Data were normalized using a static ratio function (F/F0) for each measurement of the total 350 values per well divided by each well's initial value. Data was then reduced as to peak amplitudes (Max Initial Min) using a time range that starts approximately 1 second after the glutamate EC20 addition and continues for approximately 40 seconds. This is sufficient time to capture the peak amplitude of the cellular Calcium response. Individual amplitudes were expressed as % EMax by multiplying each amplitude by 100 and then dividing the product by the mean of the amplitudes derived from the glutamate ECMax-treated wells. pEC50 values for test compounds were generated by fitting the normalized values versus the log of the test compound concentration (in mol/L) using a 4 parameter logistic equation where none of the parameters were fixed. Each of the three values collected at each concentration of test compound were weighted evenly. Individual values falling outside the 95% prediction limits of the curve fit were automatically excluded from the fit. […]

human mGluR5a receptor, sequence (P41594 21-1180 isoform P41594-2 limits assumed): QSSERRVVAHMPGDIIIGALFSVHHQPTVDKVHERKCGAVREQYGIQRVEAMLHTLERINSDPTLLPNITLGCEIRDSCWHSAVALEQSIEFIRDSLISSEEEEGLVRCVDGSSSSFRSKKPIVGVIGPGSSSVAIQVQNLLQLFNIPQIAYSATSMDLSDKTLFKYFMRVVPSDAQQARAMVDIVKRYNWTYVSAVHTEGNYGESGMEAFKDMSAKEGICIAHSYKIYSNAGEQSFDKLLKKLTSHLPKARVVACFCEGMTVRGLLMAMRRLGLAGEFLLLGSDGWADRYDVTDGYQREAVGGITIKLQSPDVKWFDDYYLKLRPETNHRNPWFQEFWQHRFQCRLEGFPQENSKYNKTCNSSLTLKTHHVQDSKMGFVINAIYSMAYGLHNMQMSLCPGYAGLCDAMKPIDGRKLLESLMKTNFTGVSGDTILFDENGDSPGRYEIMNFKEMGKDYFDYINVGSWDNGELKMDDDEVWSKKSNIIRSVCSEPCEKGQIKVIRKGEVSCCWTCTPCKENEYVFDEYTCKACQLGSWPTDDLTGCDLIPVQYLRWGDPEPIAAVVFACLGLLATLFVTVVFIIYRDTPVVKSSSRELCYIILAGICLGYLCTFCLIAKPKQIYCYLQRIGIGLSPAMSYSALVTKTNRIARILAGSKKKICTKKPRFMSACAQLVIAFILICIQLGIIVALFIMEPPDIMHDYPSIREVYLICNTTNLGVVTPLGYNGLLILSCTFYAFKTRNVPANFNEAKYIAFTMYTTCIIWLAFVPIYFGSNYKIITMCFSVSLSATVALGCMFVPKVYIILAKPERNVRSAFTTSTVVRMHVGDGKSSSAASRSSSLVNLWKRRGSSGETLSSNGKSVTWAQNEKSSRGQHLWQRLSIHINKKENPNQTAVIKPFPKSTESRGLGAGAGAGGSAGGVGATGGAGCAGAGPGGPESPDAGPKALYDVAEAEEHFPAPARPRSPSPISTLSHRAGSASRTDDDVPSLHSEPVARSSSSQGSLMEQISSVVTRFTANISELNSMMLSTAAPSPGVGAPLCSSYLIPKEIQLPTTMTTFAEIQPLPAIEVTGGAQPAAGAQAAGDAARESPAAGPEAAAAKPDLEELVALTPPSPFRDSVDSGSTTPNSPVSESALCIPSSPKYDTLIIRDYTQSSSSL

SMILES	% Reversal of amphetamine-induced hyperlocomotion [1] [%]	Emax [2] [%]	EC50 [2] [µM]	melting point [°C]
CN(C)c1cccc(N2CCn3nc(OCc4ccccc4)cc3C2=O)n1 [Example B15, 2-(benzyloxy)-5-(6-(dimethylamino)pyridin-2-yl)-6,7-dihydropyrazolo[1,5-a]pyrazin-4(5H)-one]	32	61	0.0257	115.3
O=C1c2cc(OCc3cccc(F)c3)nn2CCN1c1ccc(F)cc1 [Example B26, 2-((3-fluorobenzyl)oxy)-5-(4-fluorophenyl)-6,7-dihydropyrazolo[1,5-a]pyrazin-4(5H)-one]	25	45	0.0955	116.4
O=C1c2cc(OCc3ccccc3)nn2CCN1c1ccc(F)cn1 [Example B16]		45	> 10	145.5
O=C1c2cc(OCc3ccccc3)nn2CCCN1c1ccc(F)cn1 [Example B50, 2-(benzyloxy)-5-(5-fluoropyridin-2-yl)-5,6,7,8-tetrahydro-4H-pyrazolo[1,5-a][1,4]diazepin-4-one]		25	> 10	112.1 to 119.1
O=C1c2cc(OCc3ccccc3)nn2CCN1Cc1ccccc1 [Example B59]		36	0.0871	103.8
O=C1c2cc(OCc3ccccc3F)nn2CCN1c1ccc(F)cc1 [Example B4, 2-[(2-fluorobenzyl)oxy]-5-(4-fluorophenyl)-6,7-dihydropyrazolo[1,5-a]pyrazin-4(5H)-one]		63	0.141	119
CC1CN(c2ccc(F)cc2)C(=O)c2cc(OCc3ccccc3)nn21 (single isomer, unassigned) [Example B10]		53	0.174	134.8
Cc1nc(N2CCn3nc(OCc4ccccc4)cc3C2=O)ccc1F [Example B17, 2-(benzyloxy)-5-(5-fluoro-6-methylpyridin-2-yl)-6,7-dihydropyrazolo[1,5-a]pyrazin-4(5H)-one]	14	55	0.123	167.1
Cc1cccc(N2CCCn3nc(OCc4ccccc4)cc3C2=O)n1 [Example B52]		48	0.269	142.2 to 142.3
O=C1c2cc(OCc3ccccc3)nn2CCN1c1ccccc1F [Example B6]		44	0.229	151.9
O=C1c2cc(OCc3ccccc3)nn2CCN1CC1CC1(F)F (stereo not drawn) [Example B72]		21	> 30.2	107.4
Cc1cc(N2CCn3nc(OCc4ccccc4)cc3C2=O)ncc1F [Example B18]		45	0.339	145.2
